Type in all cases: physicochemical
Series [1] can be described thus: Particle size distribution (PSD), Malvern Mastersizer 2000 in Isopar G. The following applies: three batches of the anhydrous form made by method D. The text has this: The synthesis of the compound of formula 1 hydrated form I followed by the synthesis of the compound of the formula 1 anhydrous form has a significant advantage as compared to the synthesis of the compound of formula 1 described in WO 2017/037670. Under new conditions, the precipitation of the compound of the formula 1 hydrated form I unobviously allows to control the amount of residual hydrazine which is considered as a genotoxic impurity and must be controlled at ppm levels. The method outlined in the previous paragraph was used for the synthesis of three batches of the anhydrous form of the compound of formula 1. This material was carefully analyzed for purity, residual hydrazine level and particle size distribution.
PSD data were recoded with Malvern Mastersizer 2000 in Isopar G.

A short description of series [2]: Solid-state stability of the hydrated forms upon drying. The following applies: leads to amorphous form. The text has this: Due to the fact that the compound of formula 6 is not stable in methanol, it is not possible to obtain the hydrated form II directly from the compound 6 as for hydrated form I of the compound of formula 1. Both hydrated forms I and II of the compound of formula 1 are unstable, leading to amorphous form upon drying. The XPRD data for the dried material and data calculated from X-ray structure differ. […] The amorphous form of the compound of formula 1 can be prepared in a more convenient way by melting the anhydrous form or hydrated form I or II of the compound of formula 1 followed by cooling off the material to ambient temperature. After grinding the glass-like solid, […] of the compound of formula 1 is an off-white solid.

The nature of series [3]: Stability of process intermediates (in methanol / as free base). The text has this:
Under conditions described in the patent application WO 2017/037670 (sodium triacetoxy-borohydride, acetic acid and 1,2-dichloroethane), the compound of formula 11 reacts with N-Boc-4-piperidinone leading to a by-product of formula 12 which is observed in crude compound of formula 3. The impurity of formula 12 can be removed by the careful purification on silica gel but such an approach is unacceptable on a kilo-scale. […] Since the compound of formula 11 can be easily removed by crystallization after removal of the tert-butoxycarbonyl protection group, the present invention relates to a method for the synthesis of the compound of formula 5 with no impurity of formula 13. Moreover, the conditions described in this application unobviously allow one to use hydrochloride salt of the compound of formula 2 as the starting material which can facilitate the process. […]
Due to the fact that the compound of formula 6 is not stable in methanol, it is not possible to obtain the hydrated form II directly from the compound 6 as for hydrated form I of the compound of formula 1. […] The XPRD data for the dried material and data calculated from X-ray structure differ. […]

Where “and” joins values, the source holds several entries; their conditions need not be identical. Identical values can stand only once.

On to `C[C@H]1CN(C2CCN(c3nc(N)n[nH]3)CC2)[C@@H](Cc2ccc(Cl)cc2)CO1` [1, anhydrous form, 5-(4-((2S,5S)-5-(4-chlorobenzyl)-2-methylmorpholino)piperidin-1-yl)-1H-1,2,4-triazol-3-amine], for which, in series [1], the “Particle size distribution D10” value is 152 μm and 202 μm and 154 μm; the “Particle size distribution D50” value is 255 μm and 357 μm and 284 μm; the “Particle size distribution D90” value is 403 μm and 577 μm and 485 μm.
For the molecule `C[C@H]1CN(C2CCN(c3nc(N)n[nH]3)CC2)[C@@H](Cc2ccc(Cl)cc2)CO1` [1, hydrated form I, 5-(4-((2S,5S)-5-(4-chlorobenzyl)-2-methylmorpholino)piperidin-1-yl)-1H-1,2,4-triazol-3-amine], the “Stability of crystalline form” value in series [2] is on record as “unstable”.
On to `C[C@H]1CN[C@@H](Cc2ccc(Cl)cc2)CO1` [compound 2, (2S,5S)-5-(4-chlorobenzyl)-2-methylmorpholine], for which, in series [3] (free base (oil), must be kept as a salt to prevent decomposition), the “Stability of free base” value is “limited stability”.
For the molecule `CS/C(=N\C#N)N1CCC(N2C[C@H](C)OC[C@@H]2Cc2ccc(Cl)cc2)CC1` [compound 6, methyl (Z)-4-((2S,5S)-5-(4-chlorobenzyl)-2-methylmorpholino)-N-cyanopiperidine-1-carbimidothioate], in series [3] (in methanol), the Stability in methanol entry is listed as “not stable”.

The record behind these values is patent publication US12319677B2, “Process for the production of 5-(4-((2S,5S)-5-(4-chlorobenzyl)-2-methyl-morpholino)piperidin-1-yl)-1H-1,2,4-triazol-3-amine” (Molecure S.A., priority 2019, dated 2025).
